Test results published in US20230150924A1, “NOVEL COMPOUND HAVING CANCER METASTASIS INHIBITORY ACTIVITY, PREPARATION METHOD THEREFOR, AND PHARMACEUTICAL COMPOSITION FOR INHIBITING CANCER METASTASIS AND INVASION OR TREATING COLORECTAL CANCER, COMPRISING COMPOUND” (CELLGENTEK CO., LTD., priority 2019, published 2023).
Where two headings read alike, the source gives them in different places.

How the values were obtained:
[1] = test system: invasion of colorectal cancer cells; assay: In vivo relative invation (invasion; EV and KITENIN controls, no method described); conditions: relative to EV (=1); KIT = KITENIN
[2] = test system: KAI1 promoter; assay: KAI1 promoter luciferase reporter assay in transfected Caco2 cells; type: cell-based, human; conditions: Homo sapiens, Caco-2, 16 h, read-out: Relative KAI promoter activity
[3] = 1 μM compound, 16 hours, transfected Caco2 cells, luciferase activity relative to DMSO control (=1)

## CCCCN(CCO)Cc1cccc(C(=O)NCC(=O)c2ccccc2)c1 [Example 244, 3-((butyl (2-hydroxyethyl)amino)methyl)-N-(2-oxo-2-phenylethyl)benzamide]
[1]
  In vivo relative invation: 1.1
[2]; [3]
  fold induction at 1 µM: 1.51

## O=C(CNC(=O)c1ccccc1OC1CCN(C(=O)C2CCCCC2)CC1)c1ccccc1 [Example 165, 2-((1-(cyclohexanecarbonyl)piperidin-4-yl)oxy)-N-(2-oxo-2-phenylethyl)benzamide]
[1]
  In vivo relative invation: 1.133
[2]; [3]
  fold induction at 1 µM: 1.07

## CC(C)(C)CC(=O)NCC(=O)c1ccc(Cl)cc1 [Example 60, N-(2-(4-chlorophenyl)-2-oxoethyl)-3,3-dimethylbutanamide]
[1]
  In vivo relative invation: 0.9713
[2]; [3]
  fold induction at 1 µM: 0.81

## CCCc1ccc(NC(=O)COc2ccccc2C(=O)NCC(=O)c2ccccc2)cc1 [Example 213, 2-(2-oxo-2-((4-propylphenyl)amino)ethoxy)-N-(2-oxo-2-phenylethyl)benzamide]
[1]
  In vivo relative invation: 1.209
[2]; [3]
  fold induction at 1 µM: 1.14

## O=C(CNS(=O)(=O)c1cccc([N+](=O)[O-])c1)c1ccccc1 [Example 21, 3-nitro-N-(2-oxo-2-phenylethyl)benzenesulfonamide]
[1]
  In vivo relative invation: 1.099
[2]; [3]
  fold induction at 1 µM: 0.99

## CC(C)(C)CC(=O)N1CCC(Oc2ccccc2C(=O)NCC(=O)c2ccccc2)CC1 [Example 170, 2-((1-(3,3-dimethylbutanoyl)piperidin-4-yl)oxy)-N-(2-oxo-2-phenylethyl)benzamide]
[1]
  In vivo relative invation: 1.244
[2]; [3]
  fold induction at 1 µM: 1.03

## O=C(CNC(=O)c1ccco1)c1ccccc1 [Example 5, N-(2-oxo-2-phenylethyl)furan-2-carboxamide]
[1]
  In vivo relative invation: 0.812
[2]
  fold induction at 1 µM: 1.98

## CCCCC(=O)NCC(=O)c1ccc(Cl)cc1 [Example 61, N-(2-(4-chlorophenyl)-2-oxoethyl)pentanamide]
[1]
  In vivo relative invation: 1
[2]; [3]
  fold induction at 1 µM: 0.72

## C=CCN(CC=C)Cc1cccc(C(=O)NCC(=O)c2cccc(OC)c2)c1 [Example 285, 3-((diallylamino)methyl)-N-(2-(3-methoxyphenyl)-2-oxoethyl)benzamide]
[1]
  In vivo relative invation: 1.247
[2]; [3]
  fold induction at 1 µM: 1.47

## O=C(CNS(=O)(=O)c1ccc(Cl)cc1)c1ccc(Cl)cc1 [Example 69, 4-chloro-N-(2-(4-chlorophenyl)-2-oxoethyl)benzenesulfonamide]
[1]
  In vivo relative invation: 1.095
[2]; [3]
  fold induction at 1 µM: 0.84

## O=C(CNS(=O)(=O)c1ccc(F)cc1)c1ccccc1 [Example 26, 4-fluoro-N-(2-oxo-2-phenylethyl)benzenesulfonamide]
[1]
  In vivo relative invation: 1.063
[2]; [3]
  fold induction at 1 µM: 1.26

## CC(C)(C)CC(=O)NCC(=O)c1ccccc1 [Example 19, 3,3-dimethyl-N-(2-oxo-2-phenylethyl) butanamide]
[1]
  In vivo relative invation: 1.201
[2]; [3]
  fold induction at 1 µM: 0.98

## Cc1ccccc1C(=O)NCC(=O)c1ccc(Cl)cc1 [Example 51, N-(2-(4-chlorophenyl)-2-oxoethyl)-2-methylbenzamide]
[1]
  In vivo relative invation: 1.513
[2]; [3]
  fold induction at 1 µM: 1.81

## O=C(CNS(=O)(=O)c1ccc(F)cc1)c1ccc(N2CCOCC2)cc1 [Example 146, 4-fluoro-N-(2-(4-morpholinophenyl)-2-oxoethyl)benzenesulfonamide]
[1]
  In vivo relative invation: 0.7474
[2]; [3]
  fold induction at 1 µM: 1.16

## O=C(CNC(=O)c1ccccc1OC1CCN(C(=O)c2ccc(Br)cc2)CC1)c1ccccc1 [Example 181, 2-((1-(4-bromobenzoyl)piperidin-4-yl)oxy)-N-(2-oxo-2-phenylethyl)benzamide]
[1]
  In vivo relative invation: 1.194
[2]; [3]
  fold induction at 1 µM: 1.06

## CCN(CC)Cc1cccc(C(=O)NCC(=O)c2ccccc2)c1 [Example 247, 3-((diethylamino)methyl)-N-(2-oxo-2-phenylethyl)benzamide]
[1]
  In vivo relative invation: 1.124
[2]; [3]
  fold induction at 1 µM: 1.27

## O=C(CNC(=O)c1ccccc1OC1CCN(C(=O)c2cc(C(F)(F)F)cc(C(F)(F)F)c2)CC1)c1ccccc1 [Example 190, 2-((1-(3,5-bis(trifluoromethyl)benzoyl)piperidin-4-yl)oxy)-N-(2-oxo-2-phenylethyl)benzamide]
[1]
  In vivo relative invation: 1.203
[2]; [3]
  fold induction at 1 µM: 0.83

## COc1cccc(C(=O)CNC(=O)c2cccc(CN3CCN(C(=O)OC(C)(C)C)CC3)c2)c1 [Example 289, tert-butyl 4-(3-((2-(3-methoxyphenyl)-2-oxoethyl)carbamoyl)benzyl)piperazine-1-carboxylate]
[1]
  In vivo relative invation: 1.263
[2]; [3]
  fold induction at 1 µM: 1.61

## O=C(CNC(=O)c1cccc(CN2CCN(c3ccccn3)CC2)c1)c1ccccc1 [Example 240, N-(2-oxo-2-phenylethyl)-3-((4-(pyridin-2-yl)piperazin-1-yl)methyl)benzamide]
[1]
  In vivo relative invation: 1.1
[2]; [3]
  fold induction at 1 µM: 1.3

## COc1ccccc1N1CCN(Cc2cccc(C(=O)NCC(=O)c3ccccc3)c2)CC1 [Example 236, 3-((4-(2-methoxyphenyl)piperazin-1-yl)methyl)-N-(2-oxo-2-phenylethyl)benzamide]
[1]
  In vivo relative invation: 1.112
[2]; [3]
  fold induction at 1 µM: 1.3

## O=C(CNC(=O)c1ccccc1F)c1ccccc1 [Example 3, 2-fluoro-N-(2-oxo-2-phenylethyl)benzamide]
[1]
  In vivo relative invation: 1
[2]
  fold induction at 1 µM: 2.12

## CN(Cc1ccccc1C(=O)NCC(=O)c1ccccc1)C1CCCCC1 [Example 298, 2-((cyclohexyl(methyl)amino)methyl)-N-(2-oxo-2-phenylethyl)benzamide]
[1]
  In vivo relative invation: 1.213
[2]; [3]
  fold induction at 1 µM: 1.34

## CN(C)c1ccc(C(=O)CNC(=O)c2ccc(OC(F)(F)F)cc2)cc1 [Example 119, N-(2-(4-(dimethylamino)phenyl)-2-oxoethyl)-4-(trifluoromethoxy)benzamide]
[1]
  In vivo relative invation: 1.203
[2]; [3]
  fold induction at 1 µM: 1.35

## O=C(CNC(=O)c1ccc(OC(F)(F)F)cc1)c1ccccc1 [Example 38, N-(2-oxo-2-phenylethyl)-4-(trifluoromethoxy)benzamide]
[1]
  In vivo relative invation: 1.119
[2]; [3]
  fold induction at 1 µM: 1.57

## CN(Cc1ccccc1)Cc1cccc(C(=O)NCC(=O)c2ccccc2)c1 [Example 242, 3-((benzyl(methyl)amino)methyl)-N-(2-oxo-2-phenylethyl)benzamide]
[1]
  In vivo relative invation: 1.146
[2]; [3]
  fold induction at 1 µM: 1.17

## O=C(CNC(=O)c1ccc(CN2CCc3ccccc3C2)cc1)c1ccccc1 [Example 254, 4-((3,4-dihydroisoquinolin-2(1H)-yl)methyl)-N-(2-oxo-2-phenylethyl)benzamide]
[1]
  In vivo relative invation: 0.9143
[2]; [3]
  fold induction at 1 µM: 2.08

## O=C(CNC(=O)c1cccc(Cl)c1)c1ccc(Cl)cc1 [Example 47, 3-chloro-N-(2-(4-chlorophenyl)-2-oxoethyl)benzamide]
[1]
  In vivo relative invation: 0.9038
[2]; [3]
  fold induction at 1 µM: 0.76

## O=C(CNC(=O)c1ccccc1OC1CCN(C(=O)c2ccc(OC(F)(F)F)cc2)CC1)c1ccccc1 [Example 199, N-(2-oxo-2-phenylethyl)-2-((1-(4-(trifluoromethoxy)benzoyl)piperidin-4-yl)oxy)benzamide]
[1]
  In vivo relative invation: 1.105
[2]; [3]
  fold induction at 1 µM: 0.97

## O=C(CNC(=O)c1ccccc1Cl)c1ccc(N2CCOCC2)cc1 [Example 138, 2-chloro-N-(2-(4-morpholinophenyl)-2-oxoethyl)benzamide]
[1]
  In vivo relative invation: 1.258
[2]; [3]
  fold induction at 1 µM: 1.15

## Cc1ccccc1C(=O)NCC(=O)c1ccccc1 [Example 11, 2-methyl-N-(2-oxo-2-phenylethyl)benzamide]
[1]
  In vivo relative invation: 1.036
[2]; [3]
  fold induction at 1 µM: 1.82

## O=C(CNC(=O)c1cccc(C(F)(F)F)c1)c1ccccc1 [Example 31, N-(2-oxo-2-phenylethyl)-3-(trifluoromethyl)benzamide]
[1]
  In vivo relative invation: 0.8211
[2]; [3]
  fold induction at 1 µM: 1.18

## O=C(CNC(=O)c1ccc(OC(F)(F)F)cc1)c1ccc(Cl)cc1 [Example 81, N-(2-(4-chlorophenyl)-2-oxoethyl)-4-(trifluoromethoxy)benzamide]
[1]
  In vivo relative invation: 1.142
[2]; [3]
  fold induction at 1 µM: 0.8

## CC(C)(C)OC(=O)N1CCN(Cc2ccc(C(=O)NCC(=O)c3ccccc3)cc2)CC1 [Example 269, tert-butyl 4-(4-((2-oxo-2-phenylethyl)carbamoyl)benzyl) piperazine-1-carboxylate]
[1]
  In vivo relative invation: 1.163
[2]; [3]
  fold induction at 1 µM: 1.38

## COc1cccc(C(=O)CNS(=O)(=O)c2ccccc2)c1 [Example 129, N-(2-(3-methoxyphenyl)-2-oxoethyl)benzenesulfonamide]
[1]
  In vivo relative invation: 1.298
[2]; [3]
  fold induction at 1 µM: 1.3

## COc1ccc(NC(=O)COc2ccccc2C(=O)NCC(=O)c2ccccc2)cc1OC [Example 216, 2-(2-((3,4-dimethoxyphenyl)amino)-2-oxoethoxy)-N-(2-oxo-2-phenylethyl)benzamide]
[1]
  In vivo relative invation: 1.255
[2]; [3]
  fold induction at 1 µM: 1.2

## C=CCN(CC=C)Cc1ccccc1C(=O)NCC(=O)c1ccccc1 [Example 303, 2-((diallylamino)methyl)-N-(2-oxo-2-phenylethyl)benzamide]
[1]
  In vivo relative invation: 1.138
[2]; [3]
  fold induction at 1 µM: 1.85

## COc1ccc(C(=O)NCC(=O)c2ccc(Cl)cc2)cc1 [Example 52, N-(2-(4-chlorophenyl)-2-oxoethyl)-4-methoxybenzamide]
[1]
  In vivo relative invation: 1.158
[2]; [3]
  fold induction at 1 µM: 1.36

## O=C(CNC(=O)c1ccccc1OC1CCN(C(=O)c2cccc(Cl)c2Cl)CC1)c1ccccc1 [Example 198, 2-((1-(2,3-dichlorobenzoyl)piperidin-4-yl)oxy)-N-(2-oxo-2-phenylethyl)benzamide]
[1]
  In vivo relative invation: 1.15
[2]; [3]
  fold induction at 1 µM: 0.87

## Cc1cccc(C(=O)NCC(=O)c2ccccc2)c1 [Example 13, 3-methyl-N-(2-oxo-2-phenylethyl)benzamide]
[1]
  In vivo relative invation: 0.8565
[2]; [3]
  fold induction at 1 µM: 1.73
